Test results: patent US8716320B2, “Antibacteriall heterocyclic ureas” (Replidyne, Inc., priority 2006, dated 2014)
pIC50: −log10 of the molar value. Values after ≈ are worked out from the molar mass of the structure shown.

Legend:
[1] = target: S. pyogenes PolC (Streptococcus pyogenes, UniProt Q8NZB5); assay: Inhibition of PolC primer extension activity (scintillation proximity assay); format: biochemical; conditions: serial 2-fold dilutions, XLfit
Experimental: The polC gene from Streptococcus pyogenes was overexpressed and PolC was purified as described in PCT/JUS05/15548. Primer extension activity of PolC was measured using 1 μM oligonucleotide primer-template (primer strand 5′-ACCAGTGAGACGGGCAACA (SEQ ID NO: 1), template strand 5′-[…] SEQ ID NO: 2)). Reactions contained 10 mM magnesium acetate, 50 mM Tricine/Tris pH 7.8, 2.4% (w/v) polyethylene glycol (˜8000 MW), 0.024% pluronic F68, 1 mM dithiothreitol, 20 μM dATP, 20 μM dCTP, 0.5 μM dGTP, 0.72 μM dTTP, 0.28 μM 3H-dTTP (0.005 μCi/μL), 8% DMSO and 15 nM PolC. Reactions (25 μL) were incubated for 10 minutes at room temperature and stopped by addition of an equal volume of 100 mM EDTA. Incorporation of radiolabelled dTTP was measured by scintillation proximity assay by addition of 100 μL of 1 mg/mL PEI-PVT beads in 300 mM citrate pH 3.0.
Compounds of formula (I) were tested for inhibition of S. pyogenes PolC activity. Serial 2-fold dilutions of compounds were tested for inhibition of PolC activity and IC50's were determined (XLfit). […] These compounds were specific for prokaryotic DNA polymerase, showing little or no inhibition of eukaryotic S. cerevisiae polymerase delta at concentrations up to 160 μM.

[2] = test system: S. aureus, S. pneumoniae, S. pyogenes, and E. faecalis; assay: Broth microdilution MIC (CLSI), major Gram-positive organisms; format: cell-based; conditions: against some strains of S. aureus
Experimental: (§1) Compounds of the present invention were tested for antibacterial activity against a variety of pathogenic organisms including S. aureus, S. pneumoniae, S. pyogenes, E. faecalis, H. influenza and M. catarrhalis using a standard broth microdilution method to determine their minimum inhibitory concentrations (MICs). All compounds were tested using standard methods in accordance with CLSI guidelines (Clinical and Laboratory Standards Institute). […] Compounds of the present invention were not compromised by existing resistance to all drug classes tested, including β-lactams, glycopeptides, oxazolidinones, macrolides, and fluoroquinolones. In particular, the compound described in Example 31 was active against methicillin-(oxacillin-) resistant S. aureus (MRSA), vancomycin-intermediate S. aureus (VISA), linezolid-resistant S. aureus, methicillin-(oxacillin-) resistant S. epidermidis, macrolide-resistant S. pyogenes, macrolide-, penicillin-, and levofloxacin-resistant S. pneumoniae, and vancomycin-resistant E. faecalis (VRE).

[3] = test system: E. faecium; assay: Time kill kinetic studies; format: cell-based
[4] = test system: S. pyogenes; assay: Time kill kinetic studies; format: cell-based
[5] = test system: E. faecalis; assay: Time kill kinetic studies; format: cell-based
[6] = test system: S. pneumoniae; assay: Time kill kinetic studies; format: cell-based
[7] = test system: S. aureus; assay: Time kill kinetic studies; format: cell-based
[8] = test system: S. epidermidis; assay: Time kill kinetic studies; format: cell-based
[9] = test system: vancomycin-, macrolide-, and ciprofloxacin-resistant E. faecium; assay: Antibacterial activity against resistant strains (MIC); format: cell-based
Experimental: as §1

[10] = test system: linezolid-resistant S. aureus; assay: as above; format: cell-based
Experimental: as §1

[11] = test system: methicillin-(oxacillin-) resistant S. aureus (MRSA); assay: as above; format: cell-based
Experimental: as §1

[12] = test system: vancomycin-intermediate S. aureus (VISA); assay: as above; format: cell-based
Experimental: as §1

[13] = test system: methicillin-(oxacillin-) resistant S. epidermidis; assay: as above; format: cell-based
Experimental: as §1

[14] = test system: vancomycin-resistant E. faecalis (VRE); assay: as above; format: cell-based
Experimental: as §1

[15] = test system: macrolide-, penicillin-, and levofloxacin-resistant S. pneumoniae; assay: as above; format: cell-based
Experimental: as §1

[16] = test system: macrolide-resistant S. pyogenes; assay: as above; format: cell-based
Experimental: as §1

[17] = test system: clinically relevant resistant strains; assay: MICs in clinically relevant resistant strains (all listed strains together); format: cell-based; conditions: for MIC: range over the resistant strains listed
Experimental: as §1

[18] = test system: MRSA, vancomycin-resistant E. faecalis (VRE), vancomycin-resistant E. faecium and macrolide-resistant S. pyogenes; assay: MIC90 against resistant Gram-positive bacteria; format: cell-based, S. aureus
Experimental: as §1

Sequence of S. pyogenes PolC (Q8NZB5 whole entry): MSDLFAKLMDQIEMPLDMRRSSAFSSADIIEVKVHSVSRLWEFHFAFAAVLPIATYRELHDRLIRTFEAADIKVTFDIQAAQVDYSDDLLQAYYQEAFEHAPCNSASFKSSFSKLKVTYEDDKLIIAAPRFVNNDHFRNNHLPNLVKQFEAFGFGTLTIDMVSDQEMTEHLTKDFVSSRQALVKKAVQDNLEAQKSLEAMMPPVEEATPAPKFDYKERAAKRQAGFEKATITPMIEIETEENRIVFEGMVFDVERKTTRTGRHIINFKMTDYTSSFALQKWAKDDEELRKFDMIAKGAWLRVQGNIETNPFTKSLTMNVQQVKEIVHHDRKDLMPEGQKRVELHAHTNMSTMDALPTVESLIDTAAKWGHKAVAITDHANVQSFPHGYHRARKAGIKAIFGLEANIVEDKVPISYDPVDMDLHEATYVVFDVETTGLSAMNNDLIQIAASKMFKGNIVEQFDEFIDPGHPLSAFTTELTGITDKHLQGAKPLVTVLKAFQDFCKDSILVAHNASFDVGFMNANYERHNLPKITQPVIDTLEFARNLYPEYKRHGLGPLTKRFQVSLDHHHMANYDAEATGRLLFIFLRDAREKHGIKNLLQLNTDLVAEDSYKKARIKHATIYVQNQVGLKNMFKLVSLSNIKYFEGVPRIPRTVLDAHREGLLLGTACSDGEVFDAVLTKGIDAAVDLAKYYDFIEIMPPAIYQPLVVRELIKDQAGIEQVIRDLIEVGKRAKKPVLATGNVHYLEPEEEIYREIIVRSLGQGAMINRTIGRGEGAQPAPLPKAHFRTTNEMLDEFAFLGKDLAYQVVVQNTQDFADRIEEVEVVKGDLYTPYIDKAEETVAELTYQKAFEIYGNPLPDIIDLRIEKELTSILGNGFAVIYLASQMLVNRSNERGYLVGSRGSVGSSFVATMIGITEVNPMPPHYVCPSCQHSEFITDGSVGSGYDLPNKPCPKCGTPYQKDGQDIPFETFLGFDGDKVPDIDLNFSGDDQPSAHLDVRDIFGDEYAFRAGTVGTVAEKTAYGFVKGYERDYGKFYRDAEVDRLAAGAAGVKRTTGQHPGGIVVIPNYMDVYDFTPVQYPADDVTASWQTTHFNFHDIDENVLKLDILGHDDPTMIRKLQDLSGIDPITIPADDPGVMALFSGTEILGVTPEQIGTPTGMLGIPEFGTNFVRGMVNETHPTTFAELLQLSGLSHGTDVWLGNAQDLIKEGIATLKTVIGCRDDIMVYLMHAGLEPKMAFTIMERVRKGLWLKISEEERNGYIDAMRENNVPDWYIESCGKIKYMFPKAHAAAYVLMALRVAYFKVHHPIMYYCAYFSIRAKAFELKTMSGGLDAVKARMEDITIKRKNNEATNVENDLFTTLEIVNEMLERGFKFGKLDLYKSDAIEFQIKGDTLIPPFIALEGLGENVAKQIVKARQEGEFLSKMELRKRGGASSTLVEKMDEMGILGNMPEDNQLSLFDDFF

`COCc1csc(NC(=O)NCc2ccc(Cl)c(Cl)c2)n1` [Example 19, 1-(3,4-Dichlorobenzyl)-3-(4-(methoxymethyl)thiazol-2-yl)urea] gave a pIC50 [1] of 4.60 to 6.96.

`CCCCOCc1csc(NC(=O)NCc2ccc(Cl)c(Cl)c2)n1` [Example 21, 1-(3,4-Dichlorobenzyl)-3-(4-(butoxymethyl)thiazol-2-yl)urea] was tested, and the MIC [2] was 0.12 to 4 µg/mL (≈ 0.309 to 10.3 µM).

With `CS(=O)(=O)CCOCc1csc(NC(=O)NCc2ccc(Cl)c(Cl)c2)n1` [Example 28, 1-(3,4-Dichlorobenzyl)-3-(4-((2-(methylsulfonyl)ethoxy)methyl)thiazol-2-yl)urea] the “time kill kinetics result” value [3] was “bactericidal”, the “time kill kinetics result” value [4] was “bactericidal” and the “time kill kinetics result” value [5] was “bactericidal”. For the same compound, the “time kill kinetics result” value [6] was “bactericidal”, the “time kill kinetics result” value [7] was “bactericidal” and the “time kill kinetics result” value [8] was “bactericidal”. For the same compound, the “activity against resistant strain” value [9] was “active”, the “activity against resistant strain” value [10] was “active” and the “activity against resistant strain” value [11] was “active”. The “activity against resistant strain” value [12] was “active”, the “activity against resistant strain” value ([13]; methicillin-(oxacillin-) resistant and mupirocin resistant S. epidermidis) was “active” and the “activity against resistant strain” value ([14]; vancomycin-, macrolide-, and ciprofloxacin-resistant E. faecalis (VRE)) was “active”. The “activity against resistant strain” value [15] was “active”, the “activity against resistant strain” value [16] was “active” and the “MICs in sensitive versus drug resistant strains” value [17] was “comparable”. For the same compound, the MIC [17] was 0.5 to 4 µg/mL (≈ 1.14 to 9.12 µM) and the MIC90 [18] was 1 to 8 µg/mL (≈ 2.28 to 18.2 µM).

With `O=C(NCc1ccc(Cl)c(Cl)c1)Nc1nc(COCCO)cs1` [Example 31, 1-(3,4-Dichloro-benzyl)-3-[4-(2-hydroxy-ethoxymethyl)-thiazol-2-yl]-urea] the “time kill kinetics result” value [5] was “bactericidal”, the “time kill kinetics result” value [6] was “bactericidal” and the “time kill kinetics result” value [7] was “bactericidal”. For the same compound, the “activity against resistant strain” value [10] was “active”, the “activity against resistant strain” value [11] was “active” and the “activity against resistant strain” value [12] was “active”. For the same compound, the “activity against resistant strain” value ([13]; methicillin-(oxacillin-) resistant S. epidermidis) was “active”, the “activity against resistant strain” value ([14]; vancomycin-resistant E. faecalis (VRE)) was “active” and the “activity against resistant strain” value [15] was “active”. For the same compound, the “activity against resistant strain” value [16] was “active”, the “MICs in sensitive versus drug resistant strains” value [17] was “comparable” and the MIC [17] was 1 to 32 µg/mL (≈ 2.66 to 85 µM).

Work on `O=C(NCc1ccc(Cl)c(Cl)c1)Nc1nc(CO)cs1` [Example 39, 1-(3,4-Dichlorobenzyl)-3-(4-(hydroxymethyl)thiazol-2-yl)urea] yielded a pIC50 [1] of 4.60 to 6.96 and an MIC [2] of 0.12 to 4 µg/mL (≈ 0.361 to 12 µM).

Compound `COCCOCc1csc(NC(=O)NCc2ccc3c(c2)OCO3)n1` [Example 52, 1-Benzo[1,3]dioxol-5-ylmethyl-3-[4-(2-methoxy-ethoxymethyl)-thiazol-2-yl]-urea] has an MIC [2] of 0.12 to 4 µg/mL (≈ 0.328 to 10.9 µM).

In the case of `COCCOCc1csc(NC(=O)NCc2ccc(Br)cc2)n1` [Example 56, 1-(4-bromobenzyl)-3-(4-((2-methoxyethoxy)methyl)thiazol-2-yl)urea], the pIC50 [1] was 4.60 to 6.96.

Compound `CC(=O)Nc1ccc(SCc2csc(NC(=O)NCc3ccc(Cl)c(Cl)c3)n2)cc1` [Example 149, 1-(3,4-dichlorobenzyl)-3-(4-((4-acetamidophenylthio)methyl)thiazol-2-yl)urea] has an MIC [2] of 0.12 to 4 µg/mL (≈ 0.249 to 8.31 µM).
